Results on 17 molecules are retold here after PMC10119423, “From PERK to RIPK1: Design, synthesis and evaluation of novel potent and selective necroptosis inhibitors” (Frontiers in Chemistry, 2023).

Broadly, the IC50 is the point on the concentration scale where inhibition reaches its midpoint.

Where two headings read alike, the source gives them in different places.

One test deals with T1, PERK (Mus musculus, UniProt Q9Z2B5).
T1 construct: Immortalized MEFs were pretreated for 30 min with increasing concentrations of GSK’157 and the indicated compounds and stimulated with tunicamycin; endogenous in cells; host or cells: immortalized mouse embryonic fibroblasts (MEFs, C57Bl6/J)
T1 sequence (Q9Z2B5 29-1114): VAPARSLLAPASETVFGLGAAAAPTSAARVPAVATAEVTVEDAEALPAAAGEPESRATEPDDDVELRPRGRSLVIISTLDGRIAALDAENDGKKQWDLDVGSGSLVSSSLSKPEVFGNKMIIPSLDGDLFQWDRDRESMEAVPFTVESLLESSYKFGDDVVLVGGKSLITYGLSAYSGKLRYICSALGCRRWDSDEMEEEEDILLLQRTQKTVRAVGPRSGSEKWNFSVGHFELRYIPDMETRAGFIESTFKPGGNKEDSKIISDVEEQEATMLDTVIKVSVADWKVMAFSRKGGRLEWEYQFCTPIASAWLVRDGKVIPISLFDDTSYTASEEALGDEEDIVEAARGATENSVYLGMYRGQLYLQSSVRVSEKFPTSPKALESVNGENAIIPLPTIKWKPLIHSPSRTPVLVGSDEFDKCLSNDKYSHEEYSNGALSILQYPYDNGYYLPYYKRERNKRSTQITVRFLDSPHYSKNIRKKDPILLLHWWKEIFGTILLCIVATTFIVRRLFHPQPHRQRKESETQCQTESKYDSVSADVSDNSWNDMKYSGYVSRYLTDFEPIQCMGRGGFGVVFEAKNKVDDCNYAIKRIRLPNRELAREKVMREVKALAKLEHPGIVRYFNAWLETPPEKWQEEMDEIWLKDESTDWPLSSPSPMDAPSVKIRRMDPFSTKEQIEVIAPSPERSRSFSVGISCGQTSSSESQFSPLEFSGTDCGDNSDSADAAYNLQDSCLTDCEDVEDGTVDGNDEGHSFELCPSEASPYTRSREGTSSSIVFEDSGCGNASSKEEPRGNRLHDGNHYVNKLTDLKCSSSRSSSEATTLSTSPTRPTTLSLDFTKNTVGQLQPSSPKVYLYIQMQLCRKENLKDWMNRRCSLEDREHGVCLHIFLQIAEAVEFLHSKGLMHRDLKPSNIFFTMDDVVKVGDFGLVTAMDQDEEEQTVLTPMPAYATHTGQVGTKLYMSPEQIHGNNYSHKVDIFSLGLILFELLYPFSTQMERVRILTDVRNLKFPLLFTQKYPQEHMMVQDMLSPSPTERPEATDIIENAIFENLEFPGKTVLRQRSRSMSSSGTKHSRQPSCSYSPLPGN
In words: PERK autophosphorylation by Western blot in tunicamycin-stimulated immortalized MEFs. The class given is cell-based. The settings on record: immortalized MEFs, 30 min pretreatment, tunicamycin 1 μg/ml for 4 h; PERK autophosphorylation; read-out: PERK inhibition (IC50 estimated from a Western blot). On the procedure: (§1) MEFs were seeded in 6-well plates at a density of 300.000 cells/well in 2 mL. The next day, the cells were suspended in 1 mL of medium and pre-treated for 30 min with the indicated compounds at 1/5 dilutions series for PERK ranging from 5 to 0.04 µM and 1 μg/mL of Tm followed by 4 h treatment with 20 ng/mL of hTNF. For RIPK1, the cells were pre-treated at 1/10 dilutions series ranging from 10 to 0.01 nM, 50 µM zVAD.fmk and 1 µM TAKi before stimulation with 20 ng/mL of hTNF for 2.5 h. Then, the cells were washed two times with 1 mL of ice-cold PBS before lysis in 0.2 mL of Laemmli buffer 1x (10% (w/v) SDS, 50% glycerol, 0.5% bromophenol blue, 250 mM Tris–HCl pH 6.8) and 250 mM of dithiothreitol (DTT). The cell lysate was then collected and boiled at 95 °C for 10min and stored at −20°C. Proteins expression was later monitored by immunoblotting.
Their activities were evaluated by comparing the intensity of the signal to unstimulated MEFs (considered as zero phosphorylation) and Tunicamycin stimulated cells (considered as 100% PERK phosphorylation). […] The MEFs were pre-incubated for 30 min with the different compounds (0.01 nM–1000 nM) and then stimulated with human TNF (20 ng/mL) for 2.5 h. Similar to the PERK assessment, IC50 values for RIPK1 inhibition were estimated as a range of concentrations, and are reported in Table 1.

The next test deals with immortalized MEFs. The test can be described thus: RIPK1 kinase-dependent necroptosis (hTNF + zVAD.fmk) in MEFs, Sytox Green.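 As to all read-outs here: cell death taken as background-corrected Sytox Green fluorescence relative to the maximal signal of cells fully permeabilized with 0.1% Triton X-100.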 The conditions noted are these: for IC50: Mus musculus; for necroptosis inhibition (in words): mouse cells (MEFs), RIPK1-dependent necroptosis. The class given is cell-based, mouse.
Another test concerns the target T2, RIPK1 (Mus musculus, UniProt Q60855).
T2 construct: endogenous in cells; host or cells: immortalized mouse embryonic fibroblasts (MEFs, C57Bl6/J)
T2 sequence (Q60855 1-656): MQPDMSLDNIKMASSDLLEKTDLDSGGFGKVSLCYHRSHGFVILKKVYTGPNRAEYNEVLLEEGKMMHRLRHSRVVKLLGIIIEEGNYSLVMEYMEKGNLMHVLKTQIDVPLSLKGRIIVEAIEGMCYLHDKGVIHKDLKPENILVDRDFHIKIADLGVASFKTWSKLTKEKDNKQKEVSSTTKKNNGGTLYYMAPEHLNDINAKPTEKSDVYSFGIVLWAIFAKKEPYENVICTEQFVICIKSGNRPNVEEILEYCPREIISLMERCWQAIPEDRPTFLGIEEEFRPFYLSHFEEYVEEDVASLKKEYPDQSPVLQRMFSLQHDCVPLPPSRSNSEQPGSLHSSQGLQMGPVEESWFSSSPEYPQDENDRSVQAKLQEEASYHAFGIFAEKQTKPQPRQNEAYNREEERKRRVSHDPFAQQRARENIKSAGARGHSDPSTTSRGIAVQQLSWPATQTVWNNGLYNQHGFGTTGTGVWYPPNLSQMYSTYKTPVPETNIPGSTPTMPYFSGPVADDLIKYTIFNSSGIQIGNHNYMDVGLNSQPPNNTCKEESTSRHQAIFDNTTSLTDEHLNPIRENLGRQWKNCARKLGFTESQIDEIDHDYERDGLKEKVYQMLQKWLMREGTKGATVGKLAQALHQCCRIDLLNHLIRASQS
In words: RIPK1 autophosphorylation (pS166) by Western blot in MEFs stimulated with hTNF + TAK1i + zVAD.fmk. In kind it is cell-based. The conditions noted are these: immortalised MEFs, 30 min pretreatment with zVAD.fmk 50 μM, TAK1i 1 μM and compound, hTNF 20 ng/ml for 2.5 h, read-out: RIPK1 inhibition (IC50 estimated from a Western blot). On the procedure: as §1
Activation of PERK was induced by stimulation of the cells with Tunicamycin, as previsouly reported ([Bull and Thiede, 2012]). More precisely, the immortalised MEFs were pre-incubated for 30 min with the analogues 18–34 at different concentrations (0.04, 0.2, 1, and 5 µM) prior to 4 h stimulation with Tunicamycin (1 μg/mL). […] Their activities were evaluated by comparing the intensity of the signal to unstimulated MEFs (considered as zero phosphorylation) and Tunicamycin stimulated cells (considered as 100% PERK phosphorylation). The 12 compounds (18–20, 22–29 and 34) that had lost their inhibitory capacity on PERK were then tested for their ability to inhibit RIPK1 as shown in Figures 6A–H. Activation and autophosphorylation of RIPK1 was induced by stimulating the cells with TNF in the presence of TAK1 inhibitor and of the pan-caspases inhibitor zVAD.fmk, a well established necroptotic trigger ([Vanlangenakker et al., 2011]). The MEFs were pre-incubated for 30 min with the different compounds (0.01 nM–1000 nM) and then stimulated with human TNF (20 ng/mL) for 2.5 h. Similar to the PERK assessment, IC50 values for RIPK1 inhibition were estimated as a range of concentrations, and are reported in Table 1. These experiments provide an estimation of the specificity of our analogues against PERK and RIPK1 in comparison to the benchmark GSK’157 already reported as a potent PERK and RIPK1 inhibitor.

In another test the test system is MEFs. The test can be described thus: RIPK1 kinase-dependent apoptosis (hTNF + TAK1i) in MEFs, Sytox Green. In kind it is cell-based. The settings on record: Mus musculus, TAK1i + hTNF (100 pg/mL). From the text:
In MEFs, TNF together with the pan caspases inhibitor zVAD.fmk induces RIPK1-dependent necroptosis while TNF together with TAK1 inhibitor induces RIPK1 kinase-dependent apoptosis. We also included the conditions selected for the Western blot experiments, where necroptosis was induced by the combination of hTNF, zVAD.fmk and TAK1 inhibitor.

The test system of a further test is HT-29. The test can be described thus: Necroptosis (hTNF + TAK1i + zVAD.fmk) in HT-29 cells, Sytox Green. The settings on record: Homo sapiens, HT-29, read-out: Necroptosis hTNF + TAK1i + zVAD.fmk HT-29 IC50.
[1] abbreviates: 24 h, immortalized MEFs, zVAD-fmk 50 μM + hTNF 20 ng/ml, Sytox Green at 24 h, Table 1 series, read-out: IC50 necroptosis.
The mark [2] stands for this setting: MEFs, hTNF + zVAD.fmk, read-out: IC50 necroptosis inhibition.

Protocol for HT-29: In brief, the cells were seeded in duplicate at 10,000 cells per well in a 96-well adherent plate and incubated overnight at 37°C with 5% CO2. […] All the compound stock solutions were prepared in DMSO at 200 µM concentration. After stimulating the cells with human TNF at 20 ng/mL the plate was transferred to the incubator. Sytox Green intensity was measured in function of time at 0, 14 and 24 h with an excitation filter of 485 nm, an emission filter of 520 nm. The cell death was calculated by subtracting the background fluorescence from the induced Sytox Green fluorescence and by dividing the obtained result by the maximal fluorescence (minus the background fluorescence) obtained by permeabilization of the cells by using Triton X-100 at a final concentration of 0.1%. Curves were plotted in GraphPad 9 for the IC50 calculation.
To induce necroptosis in human colorectal adenocarcinoma cell line (HT-29) together with hTNF and the pan caspases inhibitor zVAD.fmk, TAK1 inhibitor is also needed.

Regarding `Cn1cc(-c2ccc3c(c2F)CCN3C(=O)Cc2ccc(C(C)(C)C)cn2)c2c(N)ncnc21` [Compound 25], the IC50 at PERK is more than 5000 nM; with immortalized MEFs (setting [1]), 40 nM; on RIPK1, not below 10 nM.

In the case of `Cn1cc(-c2ccc3c(c2F)CCN3C(=O)Cc2ccc(Br)cn2)c2c(N)ncnc21` [Compound 20], the IC50 is more than 5000 nM at PERK, 3.2 nM in the test with immortalized MEFs (setting [1]) and 1 to 10 nM at RIPK1.

For the molecule `Cn1cc(-c2ccc3c(c2F)CCN3C(=O)Cc2ccc(Cl)cc2)c2c(N)ncnc21` [Compound 31], the IC50 is 1000 to 5000 nM on PERK, 0.4 nM in the test with immortalized MEFs (setting [1]) and 0.1 to 1 nM at RIPK1.

`Cn1cc(-c2ccc3c(c2F)CCN3C(=O)Cc2ccc(C(F)(F)F)cc2)c2c(N)ncnc21` [Compound 34]: the IC50 on PERK was not below 5000 nM; in the test with immortalized MEFs (setting [1]), 1.1 nM; at RIPK1 it was 1 to 10 nM.

For the molecule `Cn1cc(-c2ccc3c(c2F)CCN3C(=O)Cc2ccc(C3CC3)cn2)c2c(N)ncnc21` [Compound 24], the half-maximal inhibitory concentration (IC50) at PERK is more than 5000 nM; in the test with immortalized MEFs (setting [1]) it was 33.5 nM; on RIPK1, not below 10 nM.

On to `Cn1cc(-c2ccc3c(c2F)CCN3C(=O)Cc2ccc(Cl)cn2)c2c(N)ncnc21` [Compound 19], for which the IC50 on PERK was more than 5000 nM; in the test with immortalized MEFs (setting [1]), 2.5 nM; on RIPK1 it was 1 to 10 nM.

Regarding `Cc1ccc(CC(=O)N2CCc3c2ccc(-c2cn(C)c4ncnc(N)c24)c3F)nc1` [Compound 21], the figures for the IC50 on PERK, in the test on immortalized MEFs (setting [1]) and at RIPK1 were 1000 to 5000 nM, 37 nM and not below 10 nM, respectively.

In the case of `Cn1cc(-c2ccc3c(c2F)CCN3C(=O)Cc2ccc(Br)cc2)c2c(N)ncnc21` [Compound 32], the IC50 is 1000 to 5000 nM on PERK, 0.3 nM with immortalized MEFs (setting [1]) and 1 to 10 nM at RIPK1.

`Cn1cc(-c2ccc3c(c2F)CCN3C(=O)Cc2ccc(F)cn2)c2c(N)ncnc21` [Compound 18]: the IC50 at PERK is more than 5000 nM; in the test on immortalized MEFs (setting [1]) it was 13.5 nM; at RIPK1, not below 10 nM.

Turning to `Cn1cc(-c2ccc3c(c2F)CCN3C(=O)Cc2ccncc2)c2c(N)ncnc21` [Compound 27], the IC50 on PERK was more than 5000 nM; in the test with immortalized MEFs (setting [1]), 3020 nM; in the test with immortalized MEFs (setting [2]), more than 2000 nM; on RIPK1, not below 10 nM.

Consider `Cn1cc(-c2ccc3c(c2F)CCN3C(=O)Cc2ccc(F)cc2)c2c(N)ncnc21` [Compound 30], for which the concentration for half-maximal inhibition (IC50) is 1000 to 5000 nM on PERK, 0.01 nM in the test with immortalized MEFs (setting [1]) and 0.1 to 1 nM at RIPK1. In addition, the “fold higher potency than GSK’157 (necroptosis IC50)” value with immortalized MEFs (MEFs, hTNF + zVAD.fmk) is reported as 40 fold.

As to `Cn1cc(-c2ccc3c(c2F)CCN3C(=O)Cc2ccc(-c3ccccc3)cn2)c2c(N)ncnc21` [Compound 29], the figures for the half-inhibitory concentration (IC50) on PERK, in the test on immortalized MEFs (setting [1]) and at RIPK1 were more than 5000 nM, more than 10000 nM and not below 10 nM, respectively.

Turning to `Cn1cc(-c2ccc3c(c2F)CCN3C(=O)Cc2ccc(Cc3ccccc3)cn2)c2c(N)ncnc21` [Compound 28], the IC50 on PERK is not below 5000 nM; in the test with immortalized MEFs (setting [1]), 62 nM; at RIPK1, not below 10 nM.

Consider `CN1C(=O)[C@@H](NC(=O)c2n[nH]c(Cc3ccccc3)n2)COc2ccccc21` [GSK’772, reference compound], for which the IC50 with MEFs is more than 100 nM; in the test with immortalized MEFs (24 h, MEFs, hTNF + zVAD.fmk (20 ng/mL), Table 2, read-out: Necroptosis hTNF + zVAD.fmk MEFs IC50), more than 100 nM; with HT-29, 0.2 nM. The “necroptosis inhibition (in words)” value in the test on immortalized MEFs is recorded as “no activity”.

`Cc1ccc(CC(=O)N2CCc3c2ccc(-c2cn(C)c4ncnc(N)c24)c3F)cc1` [Compound 33]: the IC50 at PERK is 1000 to 5000 nM; in the test with immortalized MEFs (setting [1]), more than 10000 nM; on RIPK1, not below 10 nM. Further, the “necroptosis inhibition (in words)” value with immortalized MEFs is “complete loss of necroptosis inhibition”.

`Cn1cc(-c2ccc3c(c2F)CCN3C(=O)Cc2ccc(O)cn2)c2c(N)ncnc21` [Compound 26]: the IC50 at PERK was not below 5000 nM; in the test on immortalized MEFs (setting [1]), 2530 nM; in the test with immortalized MEFs (setting [2]), more than 2000 nM; on RIPK1, not below 10 nM.

In the case of `COc1ccc(CC(=O)N2CCc3c2ccc(-c2cn(C)c4ncnc(N)c24)c3F)nc1` [Compound 23], the IC50 is not below 5000 nM at PERK, 39 nM in the test with immortalized MEFs (setting [1]) and not below 10 nM on RIPK1.
